According to patent US11427548B2 (Arvinas Operations, Inc., priority 2015, dated 2022):
Like-named read-outs stand apart in the source and are kept apart here.

Biological target: T1, Androgen Receptor (Homo sapiens, UniProt P10275)
T1 construct: endogenous in cells; host or cells: VCaP cells
T1 sequence (P10275 1-920): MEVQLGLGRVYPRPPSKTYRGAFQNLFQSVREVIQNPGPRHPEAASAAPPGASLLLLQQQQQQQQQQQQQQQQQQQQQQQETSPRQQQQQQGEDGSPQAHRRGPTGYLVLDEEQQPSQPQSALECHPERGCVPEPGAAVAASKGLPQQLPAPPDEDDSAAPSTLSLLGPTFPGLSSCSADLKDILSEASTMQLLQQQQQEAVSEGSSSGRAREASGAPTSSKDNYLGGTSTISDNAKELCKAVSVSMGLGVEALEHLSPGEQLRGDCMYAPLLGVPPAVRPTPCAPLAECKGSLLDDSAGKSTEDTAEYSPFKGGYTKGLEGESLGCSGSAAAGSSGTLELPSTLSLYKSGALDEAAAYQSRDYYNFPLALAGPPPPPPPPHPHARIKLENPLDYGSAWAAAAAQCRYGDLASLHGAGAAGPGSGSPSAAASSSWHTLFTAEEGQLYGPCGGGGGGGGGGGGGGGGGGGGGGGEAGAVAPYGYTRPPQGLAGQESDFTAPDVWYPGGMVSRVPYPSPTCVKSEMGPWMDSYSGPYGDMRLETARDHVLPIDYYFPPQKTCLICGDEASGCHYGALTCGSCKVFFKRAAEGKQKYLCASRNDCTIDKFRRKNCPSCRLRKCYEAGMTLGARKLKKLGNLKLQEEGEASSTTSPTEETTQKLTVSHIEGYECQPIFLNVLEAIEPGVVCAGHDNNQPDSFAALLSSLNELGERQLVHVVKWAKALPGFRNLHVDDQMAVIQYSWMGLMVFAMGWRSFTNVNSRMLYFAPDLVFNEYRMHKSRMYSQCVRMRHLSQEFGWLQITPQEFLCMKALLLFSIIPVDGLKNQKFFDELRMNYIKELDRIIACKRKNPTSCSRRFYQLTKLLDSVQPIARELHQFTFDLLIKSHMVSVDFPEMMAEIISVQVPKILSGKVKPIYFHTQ
Assay: Androgen Receptor ELISA assay (PathScan AR ELISA) in VCaP cells: AR degradation, Dmax and DC50
Type: cell-based
Procedure, shortened: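 VCaP cells in phenol red-free RPMI with 5% charcoal-stripped FBS were grown at least 3 days, then given compound as 7 half-log doses in 0.1% DMSO with 0.1 nM R1881 for 24 h. Lysates went into a sandwich AR ELISA with TMB read at 450 nm.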

[1] = read-out: VCaP DC50; concentration that caused 50% Androgen Receptor degradation, VCaP cells
[2] = VCaP, highest percentage of Androgen Receptor degradation observed, VCaP cells; read-out: VCaP Dmax (%)
[3] = concentration that caused 50% Androgen Receptor degradation, VCaP cells; read-out: VCaP DC50

| Compound | Dmax (VCaP, read-out: VCaP Dmax (%)) | DC50 [1] | Dmax [2] | DC50 [3] |
| --- | --- | --- | --- | --- |
| Cc1ncoc1-c1ccc(CNC(=O)[C@@H]2C[C@@H](O)CN2C(=O)[C@@H](NC(=O)COCCCOCCCCOc2ccc(N3C(=S)N(c4ccc(C#N)c(Cl)c4)C(=O)C3(C)C)cc2)C(C)(C)C)cc1 [Example 38, (2S,4R)-1-[(2S)-2-{2-[3-(4-{4-[3-(3-chloro-4-cyanophenyl)-5,5-dimethyl-4-oxo-2-sulfanylideneimidazolidin-1-yl]phenoxy}butoxy)propoxy]acetamido}-3,3-dimethylbutanoyl]-4-hydroxy-N-{[4-(4-methyl-1,3-oxazol-5-yl)phenyl]methyl}pyrrolidine-2-carboxamide] | 51 to 70% | < 50 nM |  |  |
| Cc1ncoc1-c1ccc(CNC(=O)[C@@H]2C[C@@H](O)CN2C(=O)[C@@H](NC(=O)COCCCOCCCCOc2ccc(N3C(=S)N(c4ccc(C#N)c(Cl)c4)C(=O)C3(C)C)cc2)C(C)C)cc1 [Example 39] | 26 to 50% | < 50 nM |  |  |
| Cc1ncsc1-c1ccc(CNC(=O)[C@@H]2C[C@@H](O)CN2C(=O)[C@@H](NC(=O)COCCCOCCCCOc2ccc(N3C(=S)N(c4ccc(C#N)c(C(F)(F)F)c4)C(=O)C3(C)C)cn2)C(C)(C)C)cc1 [Example 40, (2S,4R)-1-[(2S)-2-[2-(3-{4-[(5-{3-[4-cyano-3-(trifluoromethyl)phenyl]-5,5-dimethyl-4-oxo-2-sulfanylideneimidazolidin-1-yl}pyridin-2-yl)oxy]butoxy}propoxy)acetamido]-3,3-dimethylbutanoyl]-4-hydroxy-N-{[4-(4-methyl-1,3-thiazol-5-yl)phenyl]methyl}pyrrolidine-2-carboxamide] | 51 to 70% | < 50 nM |  |  |
| Cc1ncsc1-c1ccc(CNC(=O)[C@@H]2C[C@@H](O)CN2C(=O)[C@@H](NC(=O)COCCCOCCCCOc2ccc(N3C(=S)N(c4ccc(C#N)c(Cl)c4)C(=O)C3(C)C)cc2F)C(C)(C)C)cc1 [Example 41, (2S,4R)-1-[(2S)-2-{2-[3-(4-{4-[3-(3-chloro-4-cyanophenyl)-5,5-dimethyl-4-oxo-2-sulfanylideneimidazolidin-1-yl]-2-fluorophenoxy}butoxy)propoxy]acetamido}-3,3-dimethylbutanoyl]-4-hydroxy-N-{[4-(4-methyl-1,3-thiazol-5-yl)phenyl]methyl}pyrrolidine-2-carboxamide] | > 71% | < 50 nM |  |  |
| COc1cc(N2C(=O)C(C)(C)N(c3ccc(OCCCCOCCCOCC(=O)N[C@H](C(=O)N4C[C@H](O)C[C@H]4C(=O)NCc4ccc(-c5scnc5C)cc4)C(C)(C)C)c(F)c3)C2=S)ccc1C#N [Example 42, (2S,4R)-1-[(2S)-2-{2-[3-(4-{4-[3-(4-cyano-3-methoxyphenyl)-5,5-dimethyl-4-oxo-2-sulfanylideneimidazolidin-1-yl]-2-fluorophenoxy}butoxy)propoxy]acetamido}-3,3-dimethylbutanoyl]-4-hydroxy-N-{[4-(4-methyl-1,3-thiazol-5-yl)phenyl]methyl}pyrrolidine-2-carboxamide] |  |  | 51 to 70% | < 50 nM |
| Cc1ncsc1-c1ccc(CNC(=O)[C@@H]2C[C@@H](O)CN2C(=O)[C@@H](NC(=O)COCCCOCCCCOc2ccc(N3C(=S)N(c4ccc(C#N)c(C(F)(F)F)c4)C(=O)C34CCOCC4)cc2)C(C)(C)C)cc1 [Example 43, (2S,4R)-1-[(2S)-2-(2-{3-[4-(4-{3-[4-cyano-3-(trifluoromethyl)phenyl]-4-oxo-2-sulfanylidene-8-oxa-1,3-diazaspiro[4.5]decan-1-yl}phenoxy)butoxy]propoxy}acetamido)-3,3-dimethylbutanoyl]-4-hydroxy-N-{[4-(4-methyl-1,3-thiazol-5-yl)phenyl]methyl}pyrrolidine-2-carboxamide] | 51 to 70% | < 50 nM |  |  |
| Cc1ncoc1-c1ccc(CNC(=O)[C@@H]2C[C@@H](O)CN2C(=O)[C@@H](NC(=O)COCCCOCCCCOc2ccc(N3C(=S)N(c4ccc(C#N)c(Cl)c4)C(=O)C3(C)C)cc2F)C(C)(C)C)cc1 [Example 44, (2S,4R)-1-[(2S)-2-{2-[3-(4-{4-[3-(3-chloro-4-cyanophenyl)-5,5-dimethyl-4-oxo-2-sulfanylideneimidazolidin-1-yl]-2-fluorophenoxy}butoxy)propoxy]acetamido}-3,3-dimethylbutanoyl]-4-hydroxy-N-{[4-(4-methyl-1,3-oxazol-5-yl)phenyl]methyl}pyrrolidine-2-carboxamide] | > 71% | < 50 nM |  |  |
| CC(C)(C)[C@H](NC(=O)COCCCOCCCCOc1ccc(N2C(=S)N(c3ccc(C#N)c(Cl)c3)C(=O)C2(C)C)cc1F)C(=O)N1C[C@H](O)C[C@H]1C(=O)NCc1ccc(-c2cnco2)cc1 [Example 45, (2S,4R)-1-[(2S)-2-{2-[3-(4-{4-[3-(3-chloro-4-cyanophenyl)-5,5-dimethyl-4-oxo-2-sulfanylideneimidazolidin-1-yl]-2-fluorophenoxy}butoxy)propoxy]acetamido}-3,3-dimethylbutanoyl]-4-hydroxy-N-{[4-(1,3-oxazol-5-yl)phenyl]methyl}pyrrolidine-2-carboxamide] | > 71% | < 50 nM |  |  |
| CC(C)(C)[C@H](NC(=O)COCCCOCCCCOc1ccc(N2C(=S)N(c3ccc(C#N)c(Cl)c3)C(=O)C2(C)C)cc1F)C(=O)N1C[C@H](O)C[C@H]1C(=O)NCc1ccc(-c2cncs2)cc1 [Example 46, (2S,4R)-1-[(2S)-2-{2-[3-(4-{4-[3-(3-chloro-4-cyanophenyl)-5,5-dimethyl-4-oxo-2-sulfanylideneimidazolidin-1-yl]-2-fluorophenoxy}butoxy)propoxy]acetamido}-3,3-dimethylbutanoyl]-4-hydroxy-N-{[4-(1,3-thiazol-5-yl)phenyl]methyl}pyrrolidine-2-carboxamide] | > 71% | < 50 nM |  |  |
| CC(C)(C)[C@H](NC(=O)COCCCOCCCCOc1ccc(N2C(=S)N(c3cnc(C#N)c(C(F)(F)F)c3)C(=O)C2(C)C)cc1F)C(=O)N1C[C@H](O)C[C@H]1C(=O)NCc1ccc(-c2cnco2)cc1 [Example 47, (2S,4R)-1-[(2S)-2-(2-{3-[4-(4-{3-[6-cyano-5-(trifluoromethyl)pyridin-3-yl]-5,5-dimethyl-4-oxo-2-sulfanylideneimidazolidin-1-yl}-2-fluorophenoxy)butoxy]propoxy}acetamido)-3,3-dimethylbutanoyl]-4-hydroxy-N-{[4-(1,3-oxazol-5-yl)phenyl]methyl}pyrrolidine-2-carboxamide] |  |  | 51 to 70% | < 50 nM |
| Cc1ncsc1-c1ccc(CNC(=O)[C@@H]2C[C@@H](O)CN2C(=O)[C@@H](NC(=O)COCCCOCCCCOc2ccc(N3C(=S)N(c4cnc(C#N)c(C(F)(F)F)c4)C(=O)C3(C)C)cc2F)C(C)(C)C)cc1 [Example 48, (2S,4R)-1-[(2S)-2-(2-{3-[4-(4-{3-[6-cyano-5-(ttifluoromethyl)pyridin-3-yl]-5,5-dimethyl-4-oxo-2-sulfanylideneimidazolidin-1-yl}-2-fluorophenoxy)butoxy]propoxy}acetamido)-3,3-dimethylbutanoyl]-4-hydroxy-N-{[4-(4-methyl-1,3-thiazol-5-yl)phenyl]methyl}pyrrolidine-2-carboxamide] |  |  | 51 to 70% | < 50 nM |
| COc1cc(N2C(=O)C(C)(C)N(c3ccc(OCCCCOCCCOCC(=O)N[C@H](C(=O)N4C[C@H](O)C[C@H]4C(=O)NCc4ccc(-c5cnco5)cc4)C(C)(C)C)c(F)c3)C2=S)ccc1C#N [Example 49, (2S,4R)-1-[(2S)-2-{2-[3-(4-{4-[3-(4-cyano-3-methoxyphenyl)-5,5-dimethyl-4-oxo-2-sulfanylideneimidazolidin-1-yl]-2-fluorophenoxy}butoxy)propoxy]acetamido}-3,3-dimethylbutanoyl]-4-hydroxy-N-{[4-(1,3-oxazol-5-yl)phenyl]methyl}pyrrolidine-2-carboxamide] |  |  | 51 to 70% | < 50 nM |
| Cn1nccc1-c1ccc(CNC(=O)[C@@H]2C[C@@H](O)CN2C(=O)[C@@H](NC(=O)COCCCOCCCCOc2ccc(N3C(=S)N(c4ccc(C#N)c(Cl)c4)C(=O)C3(C)C)cc2F)C(C)(C)C)cc1 [Example 50, (2S,4R)-1-[(2S)-2-{2-[3-(4-{4-[3-(3-chloro-4-cyanophenyl)-5,5-dimethyl-4-oxo-2-sulfanylideneimidazolidin-1-yl]-2-fluorophenoxy}butoxy)propoxy]acetamido}-3,3-dimethylbutanoyl]-4-hydroxy-N-{[4-(1-methyl-1H-pyrazol-5-yl)phenyl]methyl}pyrrolidine-2-carboxamide] | > 71% | < 50 nM |  |  |
